Measured values taken from article PMC6614837 (Nucleic Acids Research, 2019).

System: P RNA
Assay: Biolayer interferometry binding to immobilized P RNA
Parameters: species or system T. maritima
Details: BLI, P RNA on SSA biosensors via biotinylated oligonucleotide
Description: Real-time binding assays of the holoenzyme, P RNA, P protein, the substrate minihelix and the 5′-leader to individual compounds were performed by biolayer interferometry using an Octet RED96 system (ForteBio). For the holoenzyme or P RNA, a 5′ biotinylated RNA oligonucleotide with the sequence 5′biotin-CAUUCCAGACGAU was immobilized on Super Streptavidin (SSA) biosensors. Then, a modified P RNA or holoenzyme was added. The P RNA modification consisted of a sequence with part of the P1 stem sequence complementary to the biotinylated oligonucleotide (AUCGUCUGGA) (Supplementary Figure S23A). P1 is far from the active site or other regions involved in specific interactions (Supplementary Figure S23B) ([19]). The activity of this construct was indistinguishable from the wild-type holoenzyme. Alternatively, the holoenzyme was immobilized through the His-tagged P protein from T. maritima at 0.05 mg/ml (3.4 μM) on Ni-NTA biosensors. Control biosensors were used to subtract non-specific binding of compounds to the biosensor surface. All assay steps (immobilization, wash, baseline, association, and dissociation) were performed in 20 mM HEPES pH 7.4, 100 mM ammonium acetate, 10 mM MgCl2, 2.5% DMSO. The assays were performed on black bottom 96-well microplates (Greiner Bio-One 655209) in a total volume of 200 μl, at 30°C with orbital shaking at 1000 rpm. Experiments were controlled with the software Data Acquisition 8.2 (ForteBio, Inc.). Kinetic binding parameters were calculated using Data Analysis 8.2 (ForteBio, Inc.). After subtraction of reference biosensors, the binding curves were aligned to the X- and Y-axis and the association-dissociation inter-step curve in order to get a common baseline for the association and dissociation phases.
Figure 3. The inhibitors purpurin and hematein bind to the holoenzyme. (A) Top. […] Bottom. […] (B) The relative affinities of the inhibitors for the P RNA or the holoenzyme differ. Binding sensorgrams obtained by biolayer interferometry (BLI). […]

Row | Structure (SMILES) | Binding to P RNA
1 | O=C1C=C2CC3(O)COc4c(ccc(O)c4O)C3=C2C=C1O (centres unmarked) [Hematein, 3,4,6a,10-tetrahydroxy-6a,7-dihydroindeno[2,1-c]chromen-9(6H)-one] | binds only slightly to P RNA
2 | O=C1c2ccccc2C(=O)c2c(O)c(O)cc(O)c21 [Purpurin, 1,2,4-trihydroxyanthraquinone] | does not bind to P RNA
